Like-named read-outs stand apart in the source and are kept apart here.
Legend:
Type in all cases: cell-based
[1] = tested on: MCF 10A human mammary epithelial cells line; assay: SRB antiproliferative assay, MCF 10A (normal); settings: 72 h, mean ± SD, read-out: Normal cell line, IC50, MCF-10A
Procedure: (§1) We determined the effect of various structural factors in the substrates on the antiproliferative activity against those selected to the study cell lines: the location and/or the presence of the prenyl group, the chalcone/flavanone skeleton and the presence of an O-methyl group at C-5 in flavanones. Flavonoids presented in Figure 1 were tested for the antiproliferative activity towards eight cancer cell lines including estrogen-dependent (MCF7 and T-47D) and two normal ones (HLMEC and MCF 10A). The in vitro antiproliferative activity was measured using SRB assay. The results are presented in Figure 2 (and in the supplement in Table S1). The antiproliferative activity was measured separately for each of the experiments and given as the average IC50 (the concentration of tested compound which inhibits 50% of the cells population). Cisplatin (CP), a common anticancer drug, was used as a positive control.
(§2) The following established in vitro cell lines were applied: MCF7, T-47D, MDA-MB-231 (human breast cancer cell line), A2780 (human ovarian cancer cell line), A2780cis (human cisplatin-resistant ovarian cancer cell line), PC-3 and DU 145 (human prostate cancer cell lines), HT-29 (human colon cancer cell line), HLMEC (human lung microvascular endothelial cell line), and MCF 10A (human mammary epithelial cells line).
(§3) The cell lines: MDA-MB-231, HT-29, PC-3, DU 145, and MCF 10A were obtained from the American Type Culture Collection (Rockville, MD, USA), MCF7, T-47D, A2780, A2780cis from the European Collection Cell Cultures (Sigma-Aldrich, Chemie GmbH, Steinheim, Germany), while the HLMEC cell line was obtained by M. Paprocka from the institute. All cell lines are being maintained in the Institute of Immunology and Experimental Therapy (Wrocław, Poland). DU 145 and MCF7 cells were cultured in Eagle medium (supplemented with 4mM L-glutamine, 10% fetal bovine serum, 1 mM sodium pyruvate for DU 145 cells or 2 mM L-glutamine, 1% mem non-essential amino acid solution and 8 µg/mL insulin and 10% fetal bovine serum for MCF7). […] HT-29 and T-47D cell lines were cultured in RPMI 1640 + OPTI-MEM medium supplemented with 2 mM L-glutamine, 5% fetal bovine serum and 8 µg/mL of insulin (T-47D) or 1 mM sodium pyruvate (HT-29). MDA-MB-231, PC-3 and HLMEC cell lines were cultured in RPMI 1640 medium supplemented with 2 mM L-glutamine and 10% fetal bovine serum. Medium for MCF 10A cell line consisted of F-12 nutrient mixture supplemented with cholera toxin (0.05 µg/mL), insulin (10 µg/mL), hydrocortisone (0.5 µg/mL), 5% horse serum, and EGFH (20 ng/mL). All the culture media contained antibiotics: 100 units/mL penicillin (Polfa Tarchomin SA, Warsaw, Poland), and 100 µg/mL streptomycin (Sigma-Aldrich, Chemie GmbH, Steinheim, Germany). All cell lines were grown at 37 °C with 5% CO2 humidified atmosphere.
(§4) Twenty-four hours before the incubation with the tested compounds, the cells were seeded in 96-plates (Sarstedt, Germany) at a density of 1 × 10^4 cells per well (0.75 × 10^4 per well for MCF7 and 1 × 10^3 per well for HLMEC) in 100 µL of a culture medium.
(§5) Each agent at each concentration (from 0.1 to 100 µg/mL) was tested in a single experiment, which was repeated four to five times. […] Cisplatin was used as a reference drug.
(§6) The results were calculated as the IC50 (inhibitory concentration 50%)—the concentration of the tested compound which inhibits 50% of the cells population. IC50 values were calculated for each experiment separately and mean values ± SD are presented in the Table S1 in the Supplementary Materials. Each compound at each concentration was tested in triplicate in a single experiment, which was repeated four to five times.
(§7) The cells were fixed in situ by gently adding cold 50% trichloroacetic acid (50 µL per well). The plates were incubated at 4 °C for 1h and then washed five times with tap water. […]

[2] = tested on: HT-29 human colon cancer cell line; assay: SRB antiproliferative assay, HT-29; settings: for IC50: SRB, 72 h, mean ± SD; for Selectivity index SIA, HT-29: IC50 HLMEC / IC50 HT-29; for Selectivity index SIB, HT-29: IC50 MCF-10A / IC50 HT-29
[3] = tested on: PC-3 human prostate cancer cell line; assay: SRB antiproliferative assay, PC-3; settings: for IC50: SRB, 72 h, mean ± SD; for Selectivity index SIA, PC-3: IC50 HLMEC / IC50 PC-3; for Selectivity index SIB, PC-3: IC50 MCF-10A / IC50 PC-3
Procedure: as §1, §2, §3, §4, §5, §6, §7

[4] = tested on: T-47D human breast cancer cell line; assay: SRB antiproliferative assay, T-47D; settings: for IC50: SRB, 72 h, mean ± SD; for Selectivity index SIA, T-47D: IC50 HLMEC / IC50 T-47D; for Selectivity index SIB, T-47D: IC50 MCF-10A / IC50 T-47D
Procedure: as §1, §2, §3, §4, §5, §6, §7

[5] = tested on: MCF7 human breast cancer cell line; assay: SRB antiproliferative assay, MCF7; settings: for IC50: SRB, 72 h, mean ± SD; for Selectivity index SIA, MCF-7: IC50 HLMEC / IC50 MCF-7; for Selectivity index SIB, MCF-7: IC50 MCF-10A / IC50 MCF-7
Procedure: as §1, §2, §3, §4, §5, §6, §7

[6] = tested on: A2780 human ovarian cancer cell line; assay: SRB antiproliferative assay, A2780; settings: for IC50: SRB, 72 h, mean ± SD, read-out: Cancer cell line, IC50, A-2780; for Selectivity index SIA, A-2780: IC50 HLMEC / IC50 A-2780; for Selectivity index SIB, A-2780: IC50 MCF-10A / IC50 A-2780
Procedure: as §1, §2, §3, §4, §5, §6, §7

[7] = tested on: DU 145 human prostate cancer cell line; assay: SRB antiproliferative assay, DU 145; settings: for IC50: SRB, 72 h, mean ± SD; for Selectivity index SIA, Du-145: IC50 HLMEC / IC50 Du-145; for Selectivity index SIB, Du-145: IC50 MCF-10A / IC50 Du-145
Procedure: as §1, §2, §3, §4, §5, §6, §7

[8] = tested on: MDA-MB-231 human breast cancer cell line; assay: SRB antiproliferative assay, MDA-MB-231; settings: for IC50: SRB, 72 h, mean ± SD; for Selectivity index SIA, MDA-MB-231: IC50 HLMEC / IC50 MDA-MB-231; for Selectivity index SIB, MDA-MB-231: IC50 MCF-10A / IC50 MDA-MB-231
Procedure: as §1, §2, §3, §4, §5, §6, §7

[9] = tested on: HLMEC human lung microvascular endothelial cell line; assay: SRB antiproliferative assay, HLMEC (normal); settings: 72 h, mean ± SD
[10] = tested on: A2780cis human cisplatin-resistant ovarian cancer cell line; assay: SRB antiproliferative assay, A2780cis; settings: for IC50: SRB, 72 h, mean ± SD, read-out: Cancer cell line, IC50, A-2780cis; for Selectivity index SIA, A-2780cis: IC50 HLMEC / IC50 A-2780cis; for Selectivity index SIB, A-2780cis: IC50 MCF-10A / IC50 A-2780cis
Procedure: as §1, §2, §3, §4, §5, §6, §7

Compound	IC50 ([1]; Homo sapiens, MCF-10A) [µM]	IC50 ([2]; Homo sapiens, HT-29) [µM]	Selectivity index SIA, HT-29 [2]	Selectivity index SIB, HT-29 [2]	IC50 ([3]; Homo sapiens) [µM]	Selectivity index SIA, PC-3 [3]	Selectivity index SIB, PC-3 [3]	IC50 ([4]; Homo sapiens, T47D) [µM]	Selectivity index SIA, T-47D [4]	Selectivity index SIB, T-47D [4]	IC50 ([5]; Homo sapiens, MCF7, 72 h) [µM]	Selectivity index SIA, MCF-7 [5]	Selectivity index SIB, MCF-7 [5]	IC50 ([6]; Homo sapiens, A2780) [µM]	Selectivity index SIA, A-2780 [6]	Selectivity index SIB, A-2780 [6]	IC50 ([7]; Homo sapiens, DU-145) [µM]	Selectivity index SIA, Du-145 [7]	Selectivity index SIB, Du-145 [7]	IC50 ([8]; Homo sapiens, MDA-MB-231) [µM]	further results
N.N.[Cl][Pt][Cl] [Cisplatin (CP), Cisplatin, reference compound]	–	–	–	–	–	–	–	–	–	–	–	–	–	–	–	–	–	–	–	–	IC50 [1]: 13.6 ± 4.93 µM; IC50 [2]: 9.56 ± 3.75 µM; IC50 [3]: 11.4 ± 2.23 µM; IC50 [4]: 22.2 ± 7.32 µM; IC50 [5]: 6.29 ± 1.05 µM; IC50 [6]: 0.97 ± 0.46 µM; IC50 [7]: 2.73 ± 1.32 µM; IC50 [8]: 16.9 ± 5.45 µM; IC50 [9]: 0.93 ± 0.28 µM; IC50 [10]: 12.1 ± 1.27 µM
COc1cc(O)c(CC=C(C)C)c(O)c1C(=O)CCc1ccc(O)cc1 [2HXN, 3′-(3,3-dimethylallyl)-4,2′,4′-trihydroxy-6′-methoxy-α,β-dihydrochalcone]	72 ± 8.55	12.2 ± 2.99	1.16	5.89	16.3 ± 5.22	0.87	4.43	7.27 ± 3.05	1.95	9.91	10.1 ± 2.31	1.41	7.15	1.8 ± 0.64	7.87	40.03	13 ± 4.2	1.09	5.56	10 ± 3.26	SIA against A2780, times higher than the reference ([6]; ratio of SIA to SIA of cisplatin): 5-8 times; Selectivity index SIA, MDA-MB-231 [8]: 1.41; Selectivity index SIB, MDA-MB-231 [8]: 7.19; IC50 ([9]; Homo sapiens, Endothelial cell): 14.2 ± 4.24 µM; IC50 ([10]; Homo sapiens, A2780cis): 11.6 ± 3.36 µM; Selectivity index SIA, A-2780cis [10]: 1.22; Selectivity index SIB, A-2780cis [10]: 6.22
O=C1C[C@@H](c2ccc(O)cc2)Oc2cc(O)cc(O)c21 [NG, Naringenin, reference compound]	187 ± 72.4	131 ± 28.2	0.90	1.43	171 ± 28.8	0.68	1.09	105 ± 48.3	1.12	1.79	131 ± 6.11	0.90	1.43	100 ± 4.77	1.17	1.87	134 ± 12.9	0.88	1.40	166 ± 82.4	IC50 [5]: 187 ± 72.4 µM; Selectivity index SIA, MDA-MB-231 [8]: 0.71; Selectivity index SIB, MDA-MB-231 [8]: 1.13; IC50 ([9]; Homo sapiens, Endothelial cell): 117 ± 32.3 µM; IC50 ([10]; Homo sapiens, A2780cis): 109 ± 17 µM; Selectivity index SIA, A-2780cis [10]: 1.07; Selectivity index SIB, A-2780cis [10]: 1.71
CC(C)=CCc1c(O)cc2c(c1O)C(=O)CC(c1ccc(O)cc1)O2 (stereo not drawn) [6PN, 6-(3,3-dimethylallyl)-5,7,4′-trihydroxyflavanone]	110 ± 33	64.6 ± 17.1	0.21	1.70	75.5 ± 29.8	0.18	1.46	16 ± 3.74	0.86	6.87	43.2 ± 4.37	0.32	2.54	44.2 ± 14.7	0.31	2.49	79.6 ± 8.89	0.17	1.38	62.6 ± 19.5	Selectivity index SIA, MDA-MB-231 [8]: 0.22; Selectivity index SIB, MDA-MB-231 [8]: 1.76; IC50 ([9]; Homo sapiens, Endothelial cell): 13.7 ± 5.16 µM; IC50 ([10]; Homo sapiens, A2780cis): 81.7 ± 17.7 µM; Selectivity index SIA, A-2780cis [10]: 0.17; Selectivity index SIB, A-2780cis [10]: 1.35

Reference: article PMC6278664, “Highly Cancer Selective Antiproliferative Activity of Natural Prenylated Flavonoids” (Molecules, 2018)
